Source: patent US9359409B2, “Antimicrobial peptides, compositions comprising the same and uses thereof” (priority 2012, dated 2016)
Ends that are not written are not given here.

Legend:
Type in all cases: cell-based
E. coli = conditions: non-amidated peptides; E. coli ATCC 25922, WT
Summary of the method: (§1)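 Agar dilution per CLSI M2 with non-amidated peptides diluted two-fold (1:2, 1:4, 1:8) into agar at 1:10. Inoculum 10^4 CFU/spot from 0.5 McFarland; plates incubated inverted at 35 °C for 16-20 h. MIC = lowest dilution completely inhibiting growth (>80% reduction vs control), ignoring single colonies or inoculum film.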

K. pneumoniae = conditions: non-amidated peptides; K. pneumoniae M13540, KPC
Summary of the method: as §1

S. cohnii = system: S. cohnii
Summary of the method: as §1

“ILRWPWWPWRRK-NH2 [Omiganan, ILRWPWWPWRRK, reference compound]” was tested, and the “MIC in agar dilution” value (E. coli) was over 128 µg/mL, the “MIC in agar dilution” value (K. pneumoniae) was over 128 µg/mL and the “MIC in agar dilution” value (S. cohnii) was 16 µg/mL.
